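Briefly, cells in 96-well plates were exposed to five compound concentrations for 48 h, and endpoints were estimated by linear interpolation. At the GI50, growth is halved.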 Calls of active or inactive are those of the source. Cut-off read from the data, not from the text of the source: active = GI50 up to about 1.1 µM and inactive = higher.
Assays:
Assay in all cases: DTP human tumour cell line panel, 48 h
[1] = test system: 786-0
[2] = test system: A549
[3] = test system: ACHN
[4] = test system: BT-549
[5] = test system: CAKI-1
[6] = test system: CCRF-CEM
[7] = test system: COLO 205
[8] = test system: DU-145
[9] = test system: EKVX
[10] = test system: HCC 2998
[11] = test system: HCT-116
[12] = test system: HCT-15
[13] = test system: HL-60
[14] = test system: HOP-62
[15] = test system: HOP-92
[16] = test system: HT-29
[17] = test system: IGROV-1
[18] = test system: K562
[19] = test system: KM12
[20] = test system: LOX IMVI
[21] = test system: M14
[22] = test system: MCF7
[23] = test system: MDA-MB-435
[24] = test system: MDA-N
[25] = test system: MOLT-4
[26] = test system: Malme-3M
[27] = test system: NCI-H226
[28] = test system: NCI-H23
[29] = test system: NCI-H460
[30] = test system: NCI-H522
[31] = test system: NCI/ADR-RES
[32] = test system: OVCAR-3
[33] = test system: OVCAR-4
[34] = test system: OVCAR-5
[35] = test system: OVCAR-8
[36] = test system: PC-3
[37] = test system: RPMI-8226
[38] = test system: SF-268
[39] = test system: SF-295
[40] = test system: SF-539
[41] = test system: SK-MEL-28
[42] = test system: SK-MEL-2
[43] = test system: SK-MEL-5
[44] = test system: SK-OV-3
[45] = test system: SN12C
[46] = test system: SNB-19
[47] = test system: SNB-75
[48] = test system: SR
[49] = test system: SW-620
[50] = test system: UACC-257
[51] = test system: UACC-62
[52] = test system: UO-31
[53] = test system: A498
[54] = test system: Hs-578T
[55] = test system: MDA-MB-231
[56] = test system: RXF 393
[57] = test system: TK-10
[58] = test system: U-251

Compound: COc1cc(S(=O)(=O)Nc2ccc(-c3csc(N4C(=O)CSC4c4ccccc4O)n3)cc2)ccc1Cl (stereo not drawn)
- GI50 [1]: 69.2 µM (inactive)
- GI50 [2]: 61.8 µM (inactive)
- GI50 [3]: 32.4 µM (inactive)
- GI50 [4]: 31 µM (inactive)
- GI50 [5]: > 100 µM (inactive)
- GI50 [6]: 23.3 µM (inactive)
- GI50 [7]: 24.5 µM (inactive)
- GI50 [8]: 35.4 µM (inactive)
- GI50 [9]: 25.4 µM (inactive)
- GI50 [10]: 21.6 µM (inactive)
- GI50 [11]: 32.8 µM (inactive)
- GI50 [12]: 58.5 µM
- GI50 [13]: 22.2 µM (inactive)
- GI50 [14]: 85.7 µM (inactive)
- GI50 [15]: 29.2 µM (inactive)
- GI50 [16]: 92 µM (inactive)
- GI50 [17]: 46.3 µM (inactive)
- GI50 [18]: 34.8 µM (inactive)
- GI50 [19]: 38.4 µM (inactive)
- GI50 [20]: 34.4 µM (inactive)
- GI50 [21]: 64.3 µM (inactive)
- GI50 [22]: 30.9 µM (inactive)
- GI50 [23]: 40.4 µM (inactive)
- GI50 [24]: 32.9 µM (inactive)
- GI50 [25]: 88.3 µM (inactive)
- GI50 [26]: 42.5 µM (inactive)
- GI50 [27]: 32.9 µM (inactive)
- GI50 [28]: 31.5 µM (inactive)
- GI50 [29]: 21.4 µM (inactive)
- GI50 [30]: 24.3 µM (inactive)
- GI50 [31]: > 100 µM (inactive)
- GI50 [32]: 84.7 µM (inactive)
- GI50 [33]: 52.2 µM (inactive)
- GI50 [34]: 79.6 µM (inactive)
- GI50 [35]: 55.1 µM (inactive)
- GI50 [36]: 38.1 µM (inactive)
- GI50 [37]: 60.5 µM (inactive)
- GI50 [38]: 44.8 µM (inactive)
- GI50 [39]: 72.6 µM (inactive)
- GI50 [40]: 34.8 µM (inactive)
- GI50 [41]: 24.5 µM (inactive)
- GI50 [42]: 44.6 µM (inactive)
- GI50 [43]: 58.7 µM (inactive)
- GI50 [44]: > 100 µM (inactive)
- GI50 [45]: 92 µM (inactive)
- GI50 [46]: 57.9 µM (inactive)
- GI50 [47]: 31.9 µM (inactive)
- GI50 [48]: 54.8 µM (inactive)
- GI50 [49]: 35.2 µM (inactive)
- GI50 [50]: 27.7 µM (inactive)
- GI50 [51]: 29.4 µM (inactive)
- GI50 [52]: 51.3 µM (inactive)

Compound: N#Cc1c(-c2ccc([N+](=O)[O-])cc2)c(C#N)c(=O)n(NS(=O)(=O)c2ccccc2)c1S
- GI50 [1]: 32.1 µM (inactive)
- GI50 [53]: 74.6 µM (inactive)
- GI50 [2]: 39.9 µM (inactive)
- GI50 [3]: 37.8 µM (inactive)
- GI50 [4]: 15.5 µM (inactive)
- GI50 [5]: 66.4 µM (inactive)
- GI50 [6]: 16 µM (inactive)
- GI50 [7]: 46.5 µM (inactive)
- GI50 [9]: 31.3 µM (inactive)
- GI50 [10]: 40.6 µM (inactive)
- GI50 [11]: 19.4 µM (inactive)
- GI50 [12]: 36.9 µM
- GI50 [14]: > 100 µM (inactive)
- GI50 [15]: > 100 µM (inactive)
- GI50 [16]: 36.3 µM (inactive)
- GI50 [54]: 20.8 µM (inactive)
- GI50 [17]: 19.2 µM (inactive)
- GI50 [18]: 30.2 µM (inactive)
- GI50 [19]: 25.3 µM (inactive)
- GI50 [20]: 18.4 µM (inactive)
- GI50 [21]: 37 µM (inactive)
- GI50 [22]: 31.4 µM (inactive)
- GI50 [55]: 21.3 µM (inactive)
- GI50 [23]: 38.5 µM (inactive)
- GI50 [25]: 17.5 µM (inactive)
- GI50 [26]: 48.1 µM (inactive)
- GI50 [27]: 65 µM (inactive)
- GI50 [29]: 48.8 µM (inactive)
- GI50 [30]: 21.2 µM (inactive)
- GI50 [31]: 50.6 µM (inactive)
- GI50 [33]: > 100 µM (inactive)
- GI50 [34]: 61 µM (inactive)
- GI50 [35]: 33.2 µM (inactive)
- GI50 [36]: 28.8 µM (inactive)
- GI50 [37]: 20.5 µM (inactive)
- GI50 [56]: 33 µM (inactive)
- GI50 [38]: 30 µM (inactive)
- GI50 [39]: 44.8 µM (inactive)
- GI50 [40]: 20 µM (inactive)
- GI50 [41]: 61.9 µM (inactive)
- GI50 [42]: 19.2 µM (inactive)
- GI50 [43]: 10.8 µM (inactive)
- GI50 [44]: 79.8 µM (inactive)
- GI50 [45]: 17.4 µM (inactive)
- GI50 [46]: 44.2 µM (inactive)
- GI50 [47]: 39.6 µM (inactive)
- GI50 [49]: 22.1 µM (inactive)
- GI50 [57]: > 100 µM (inactive)
- GI50 [58]: 41.3 µM (inactive)
- GI50 [50]: 99.8 µM (inactive)
- GI50 [51]: 20.7 µM (inactive)

Source: ChEMBL document CHEMBL1201862, “PubChem BioAssay data set” (2004)
